The source made the active and inactive calls. For most assays here, no stated cut-off is given here; in the data, actives have a measured Kd and inactives only a lower limit.
Tests used:
[1] = molecular target: Receptor-interacting serine/threonine-protein kinase 2 (Homo sapiens, UniProt O43353)
[2] = molecular target: T1, Mitogen-activated protein kinase kinase kinase 2 (Homo sapiens, UniProt Q9Y2U5)
T1 sequence (Q9Y2U5 whole entry): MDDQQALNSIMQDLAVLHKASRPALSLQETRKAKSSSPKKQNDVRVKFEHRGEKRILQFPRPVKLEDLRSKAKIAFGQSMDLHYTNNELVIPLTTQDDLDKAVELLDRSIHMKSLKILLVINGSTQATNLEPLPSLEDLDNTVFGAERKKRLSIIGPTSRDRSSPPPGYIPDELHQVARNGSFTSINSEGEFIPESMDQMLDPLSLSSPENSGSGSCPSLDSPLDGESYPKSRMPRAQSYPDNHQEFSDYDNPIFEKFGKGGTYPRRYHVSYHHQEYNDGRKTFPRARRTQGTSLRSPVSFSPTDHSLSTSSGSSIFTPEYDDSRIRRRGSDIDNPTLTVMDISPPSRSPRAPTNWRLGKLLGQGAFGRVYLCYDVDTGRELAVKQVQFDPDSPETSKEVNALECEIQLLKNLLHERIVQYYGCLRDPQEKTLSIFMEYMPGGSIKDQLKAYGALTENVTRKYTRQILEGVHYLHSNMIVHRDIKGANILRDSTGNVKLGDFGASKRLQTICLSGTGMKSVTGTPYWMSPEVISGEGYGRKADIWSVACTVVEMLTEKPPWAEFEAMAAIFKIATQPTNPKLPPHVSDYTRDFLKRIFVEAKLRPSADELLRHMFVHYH

[3] = molecular target: T2, Serine/threonine-protein kinase 4 (Homo sapiens, UniProt Q13043)
T2 sequence (Q13043 whole entry): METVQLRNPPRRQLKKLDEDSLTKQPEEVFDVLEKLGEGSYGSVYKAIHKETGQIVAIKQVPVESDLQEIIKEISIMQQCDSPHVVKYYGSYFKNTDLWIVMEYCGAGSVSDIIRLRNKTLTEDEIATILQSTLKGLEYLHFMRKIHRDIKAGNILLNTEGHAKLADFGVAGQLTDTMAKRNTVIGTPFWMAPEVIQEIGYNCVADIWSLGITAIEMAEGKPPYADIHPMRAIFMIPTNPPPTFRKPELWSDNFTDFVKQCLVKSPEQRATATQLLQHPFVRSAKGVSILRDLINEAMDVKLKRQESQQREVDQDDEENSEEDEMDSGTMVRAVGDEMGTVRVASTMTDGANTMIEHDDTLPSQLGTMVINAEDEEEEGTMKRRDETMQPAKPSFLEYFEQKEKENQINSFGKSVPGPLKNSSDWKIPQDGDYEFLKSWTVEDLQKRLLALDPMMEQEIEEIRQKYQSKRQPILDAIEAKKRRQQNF

[4] = molecular target: Tyrosine-protein kinase FRK (Homo sapiens, UniProt P42685)
Tyrosine-protein kinase FRK, sequence (P42685 whole entry): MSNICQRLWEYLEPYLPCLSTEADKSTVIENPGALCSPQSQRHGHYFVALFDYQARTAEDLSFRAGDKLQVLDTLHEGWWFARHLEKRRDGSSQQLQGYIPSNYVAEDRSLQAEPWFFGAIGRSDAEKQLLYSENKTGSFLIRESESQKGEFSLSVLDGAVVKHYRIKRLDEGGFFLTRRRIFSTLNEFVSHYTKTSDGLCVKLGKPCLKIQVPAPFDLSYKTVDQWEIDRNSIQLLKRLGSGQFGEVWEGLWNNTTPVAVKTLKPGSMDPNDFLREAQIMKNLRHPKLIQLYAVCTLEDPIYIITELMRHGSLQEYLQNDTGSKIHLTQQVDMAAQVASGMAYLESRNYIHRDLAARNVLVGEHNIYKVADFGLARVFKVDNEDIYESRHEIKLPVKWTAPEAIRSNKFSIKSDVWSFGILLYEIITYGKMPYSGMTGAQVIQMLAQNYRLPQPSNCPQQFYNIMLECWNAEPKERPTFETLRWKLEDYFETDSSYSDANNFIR

[5] = molecular target: T3, Peroxisomal acyl-coenzyme A oxidase 1 (Homo sapiens, UniProt Q15067)
T3 sequence (Q15067 whole entry): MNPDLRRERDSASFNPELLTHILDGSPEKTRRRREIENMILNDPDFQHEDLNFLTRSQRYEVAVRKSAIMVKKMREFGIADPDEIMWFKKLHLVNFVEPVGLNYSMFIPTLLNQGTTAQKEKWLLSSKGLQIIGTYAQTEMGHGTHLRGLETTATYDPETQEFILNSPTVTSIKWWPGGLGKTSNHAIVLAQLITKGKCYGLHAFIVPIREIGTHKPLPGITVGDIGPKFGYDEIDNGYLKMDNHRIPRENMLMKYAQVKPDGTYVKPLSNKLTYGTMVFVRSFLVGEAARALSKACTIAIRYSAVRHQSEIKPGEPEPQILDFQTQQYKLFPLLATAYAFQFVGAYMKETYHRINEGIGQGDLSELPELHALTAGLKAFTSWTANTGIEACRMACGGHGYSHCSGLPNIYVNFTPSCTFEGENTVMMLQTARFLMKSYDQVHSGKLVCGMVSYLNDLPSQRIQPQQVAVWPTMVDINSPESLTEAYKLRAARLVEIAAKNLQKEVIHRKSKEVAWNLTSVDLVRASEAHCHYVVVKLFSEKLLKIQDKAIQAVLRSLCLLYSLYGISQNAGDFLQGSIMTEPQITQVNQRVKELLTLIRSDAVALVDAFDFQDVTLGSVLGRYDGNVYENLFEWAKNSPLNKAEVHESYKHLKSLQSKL

[6] = molecular target: T4, Dual specificity mitogen-activated protein kinase kinase 5 (Homo sapiens, UniProt Q13163)
T4 sequence (Q13163 whole entry): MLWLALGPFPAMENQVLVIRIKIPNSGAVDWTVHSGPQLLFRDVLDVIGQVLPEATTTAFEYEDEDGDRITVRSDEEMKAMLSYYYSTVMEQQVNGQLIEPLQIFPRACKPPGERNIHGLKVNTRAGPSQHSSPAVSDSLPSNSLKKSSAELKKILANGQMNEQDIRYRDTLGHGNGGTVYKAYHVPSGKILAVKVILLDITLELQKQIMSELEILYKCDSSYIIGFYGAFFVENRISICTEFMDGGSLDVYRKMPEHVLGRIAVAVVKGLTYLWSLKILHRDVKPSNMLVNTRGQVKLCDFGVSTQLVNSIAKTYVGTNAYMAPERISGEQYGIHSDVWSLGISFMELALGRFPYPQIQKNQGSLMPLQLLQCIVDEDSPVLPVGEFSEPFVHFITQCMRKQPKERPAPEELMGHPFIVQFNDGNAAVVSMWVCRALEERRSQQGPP

TGF-beta receptor type-2 = TGF-beta receptor type-2 (Homo sapiens, UniProt P37173)
TGF-beta receptor type-2, sequence (P37173 whole entry): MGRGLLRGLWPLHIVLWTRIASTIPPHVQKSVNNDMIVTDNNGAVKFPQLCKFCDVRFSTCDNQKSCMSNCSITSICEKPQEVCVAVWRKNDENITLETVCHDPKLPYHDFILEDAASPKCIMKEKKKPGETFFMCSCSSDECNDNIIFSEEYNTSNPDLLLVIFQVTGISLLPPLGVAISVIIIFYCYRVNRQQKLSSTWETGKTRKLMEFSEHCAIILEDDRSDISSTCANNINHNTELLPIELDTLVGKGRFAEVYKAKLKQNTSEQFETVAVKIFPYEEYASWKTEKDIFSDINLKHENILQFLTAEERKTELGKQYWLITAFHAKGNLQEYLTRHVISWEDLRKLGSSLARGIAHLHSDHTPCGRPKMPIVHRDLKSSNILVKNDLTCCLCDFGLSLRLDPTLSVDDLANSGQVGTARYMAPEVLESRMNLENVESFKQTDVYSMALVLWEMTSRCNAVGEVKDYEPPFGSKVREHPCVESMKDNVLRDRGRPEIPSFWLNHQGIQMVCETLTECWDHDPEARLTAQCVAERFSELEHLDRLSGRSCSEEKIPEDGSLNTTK

[7] = molecular target: AP2-associated protein kinase 1 (Homo sapiens, UniProt Q2M2I8)
AP2-associated protein kinase 1, sequence (Q2M2I8 whole entry): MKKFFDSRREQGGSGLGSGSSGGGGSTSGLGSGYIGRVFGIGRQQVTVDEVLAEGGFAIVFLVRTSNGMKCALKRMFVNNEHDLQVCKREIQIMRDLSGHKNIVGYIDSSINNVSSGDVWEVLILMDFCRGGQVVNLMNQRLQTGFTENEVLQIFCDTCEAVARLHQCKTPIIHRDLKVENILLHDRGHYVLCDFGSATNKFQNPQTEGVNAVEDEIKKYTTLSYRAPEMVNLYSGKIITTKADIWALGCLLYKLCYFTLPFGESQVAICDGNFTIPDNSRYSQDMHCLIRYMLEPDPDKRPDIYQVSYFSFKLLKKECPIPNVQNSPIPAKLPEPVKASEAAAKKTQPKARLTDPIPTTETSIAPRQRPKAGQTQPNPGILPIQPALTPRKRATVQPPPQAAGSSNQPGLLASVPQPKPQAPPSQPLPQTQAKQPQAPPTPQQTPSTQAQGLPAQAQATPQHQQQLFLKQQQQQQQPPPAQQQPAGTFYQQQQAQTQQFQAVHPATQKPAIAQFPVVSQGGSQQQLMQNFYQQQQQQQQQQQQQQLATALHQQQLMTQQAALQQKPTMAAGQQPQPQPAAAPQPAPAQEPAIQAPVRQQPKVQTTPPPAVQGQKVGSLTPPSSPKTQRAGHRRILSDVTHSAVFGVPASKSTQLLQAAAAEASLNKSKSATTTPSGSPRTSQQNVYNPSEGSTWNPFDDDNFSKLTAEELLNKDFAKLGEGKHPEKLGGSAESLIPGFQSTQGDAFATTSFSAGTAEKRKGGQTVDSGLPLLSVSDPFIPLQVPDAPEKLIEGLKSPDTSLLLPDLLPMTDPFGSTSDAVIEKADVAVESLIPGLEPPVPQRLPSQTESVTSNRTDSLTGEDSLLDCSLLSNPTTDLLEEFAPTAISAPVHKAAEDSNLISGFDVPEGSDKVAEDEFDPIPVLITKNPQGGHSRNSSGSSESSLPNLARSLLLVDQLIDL

[8] = molecular target: Mitogen-activated protein kinase 8 (Homo sapiens, UniProt P45983)
Mitogen-activated protein kinase 8, sequence (P45983 whole entry): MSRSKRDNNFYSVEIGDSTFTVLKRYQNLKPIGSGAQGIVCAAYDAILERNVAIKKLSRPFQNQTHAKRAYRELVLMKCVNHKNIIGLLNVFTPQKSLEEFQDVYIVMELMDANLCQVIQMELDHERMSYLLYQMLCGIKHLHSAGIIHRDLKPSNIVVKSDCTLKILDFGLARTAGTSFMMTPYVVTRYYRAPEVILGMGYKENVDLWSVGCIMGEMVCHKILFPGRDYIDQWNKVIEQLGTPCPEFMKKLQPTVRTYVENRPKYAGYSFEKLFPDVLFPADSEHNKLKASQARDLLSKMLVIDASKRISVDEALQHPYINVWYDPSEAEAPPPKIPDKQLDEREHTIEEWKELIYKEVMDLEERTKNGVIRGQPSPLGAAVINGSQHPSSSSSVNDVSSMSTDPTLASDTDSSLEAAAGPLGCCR

Wee1-like protein kinase = Wee1-like protein kinase (Homo sapiens, UniProt P30291)
Wee1-like protein kinase, sequence (P30291 whole entry): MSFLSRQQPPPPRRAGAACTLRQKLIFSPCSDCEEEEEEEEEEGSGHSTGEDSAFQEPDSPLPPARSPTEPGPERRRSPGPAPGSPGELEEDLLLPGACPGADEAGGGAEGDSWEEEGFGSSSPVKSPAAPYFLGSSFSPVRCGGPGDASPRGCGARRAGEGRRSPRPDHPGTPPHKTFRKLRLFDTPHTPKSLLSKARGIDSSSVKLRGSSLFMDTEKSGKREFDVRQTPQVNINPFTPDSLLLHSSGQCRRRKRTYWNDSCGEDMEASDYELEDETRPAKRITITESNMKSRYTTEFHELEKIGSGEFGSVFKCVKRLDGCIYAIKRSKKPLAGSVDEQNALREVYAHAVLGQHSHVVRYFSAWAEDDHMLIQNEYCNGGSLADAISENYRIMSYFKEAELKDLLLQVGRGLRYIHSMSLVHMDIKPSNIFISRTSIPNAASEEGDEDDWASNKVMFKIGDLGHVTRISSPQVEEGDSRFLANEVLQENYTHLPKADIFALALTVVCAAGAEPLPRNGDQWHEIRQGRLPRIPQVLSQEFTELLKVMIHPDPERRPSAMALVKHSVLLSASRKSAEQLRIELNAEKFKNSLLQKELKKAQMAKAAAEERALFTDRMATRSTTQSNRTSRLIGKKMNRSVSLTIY

[9] = molecular target: Dual specificity tyrosine-phosphorylation-regulated kinase 1A (Homo sapiens, UniProt Q13627)
[10] = molecular target: Mitogen-activated protein kinase kinase kinase kinase 4 (Homo sapiens, UniProt O95819)
Mitogen-activated protein kinase kinase kinase kinase 4, sequence (O95819 whole entry): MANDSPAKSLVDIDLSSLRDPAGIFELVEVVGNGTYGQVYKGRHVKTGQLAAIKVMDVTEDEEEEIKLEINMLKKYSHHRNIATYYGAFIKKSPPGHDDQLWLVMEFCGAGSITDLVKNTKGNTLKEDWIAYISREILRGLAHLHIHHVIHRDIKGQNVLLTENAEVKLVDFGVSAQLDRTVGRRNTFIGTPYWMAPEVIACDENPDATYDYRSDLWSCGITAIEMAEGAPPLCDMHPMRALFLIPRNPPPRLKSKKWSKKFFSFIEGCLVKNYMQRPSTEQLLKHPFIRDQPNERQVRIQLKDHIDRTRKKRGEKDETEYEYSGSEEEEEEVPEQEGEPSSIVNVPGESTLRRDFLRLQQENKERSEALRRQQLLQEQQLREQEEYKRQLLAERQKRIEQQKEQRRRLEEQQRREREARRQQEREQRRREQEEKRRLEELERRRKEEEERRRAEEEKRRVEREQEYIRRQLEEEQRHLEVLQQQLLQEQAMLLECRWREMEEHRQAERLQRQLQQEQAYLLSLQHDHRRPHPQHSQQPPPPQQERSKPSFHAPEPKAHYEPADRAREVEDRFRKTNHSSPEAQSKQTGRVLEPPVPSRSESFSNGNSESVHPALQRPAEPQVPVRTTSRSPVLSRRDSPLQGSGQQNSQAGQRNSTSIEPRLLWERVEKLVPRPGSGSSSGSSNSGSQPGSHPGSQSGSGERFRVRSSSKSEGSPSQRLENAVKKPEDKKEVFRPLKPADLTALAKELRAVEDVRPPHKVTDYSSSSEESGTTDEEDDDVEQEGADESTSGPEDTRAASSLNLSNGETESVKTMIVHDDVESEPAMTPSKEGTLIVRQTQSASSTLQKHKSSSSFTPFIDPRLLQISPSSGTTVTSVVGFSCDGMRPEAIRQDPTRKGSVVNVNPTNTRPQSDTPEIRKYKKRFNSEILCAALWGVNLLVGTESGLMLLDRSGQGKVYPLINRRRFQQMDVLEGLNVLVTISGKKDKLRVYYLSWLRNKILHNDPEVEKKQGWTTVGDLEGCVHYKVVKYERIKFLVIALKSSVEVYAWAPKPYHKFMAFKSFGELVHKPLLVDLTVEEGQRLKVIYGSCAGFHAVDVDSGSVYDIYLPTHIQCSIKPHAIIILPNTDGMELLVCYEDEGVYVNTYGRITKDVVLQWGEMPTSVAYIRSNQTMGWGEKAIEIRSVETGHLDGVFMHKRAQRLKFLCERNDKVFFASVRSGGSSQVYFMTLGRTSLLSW

Receptor-interacting serine/threonine-protein kinase 2, sequence (O43353 whole entry): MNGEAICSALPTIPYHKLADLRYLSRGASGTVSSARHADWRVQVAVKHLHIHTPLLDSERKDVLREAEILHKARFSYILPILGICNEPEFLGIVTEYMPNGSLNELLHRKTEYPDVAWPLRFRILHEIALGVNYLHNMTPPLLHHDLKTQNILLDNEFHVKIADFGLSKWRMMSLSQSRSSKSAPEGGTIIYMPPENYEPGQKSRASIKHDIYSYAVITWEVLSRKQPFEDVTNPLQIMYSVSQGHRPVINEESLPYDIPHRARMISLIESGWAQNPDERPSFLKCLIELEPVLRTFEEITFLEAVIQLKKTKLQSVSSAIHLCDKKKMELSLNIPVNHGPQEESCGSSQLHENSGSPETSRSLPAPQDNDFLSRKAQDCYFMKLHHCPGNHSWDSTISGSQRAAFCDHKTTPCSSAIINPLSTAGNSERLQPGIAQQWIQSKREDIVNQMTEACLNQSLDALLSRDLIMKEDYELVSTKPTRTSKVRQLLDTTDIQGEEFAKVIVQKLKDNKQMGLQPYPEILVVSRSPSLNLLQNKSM

Compound	Kd [1]	Kd [2]	Kd [3]	Kd [4]	Kd [5]	Kd [6]	Kd (TGF-beta receptor type-2)	Kd [7]	Kd [8]	Kd (Wee1-like protein kinase)	Kd [9]	Kd [10]
O=c1[nH]c([C@@H]2CCCN2)nc2c1oc1ccc(Cl)cc12	> 30 µM (inactive)	> 30 µM (inactive)	> 30 µM (inactive)	> 30 µM (inactive)	> 30 µM (inactive)	> 30 µM (inactive)	> 30 µM (inactive)	> 30 µM (inactive)	> 30 µM (inactive)	> 30 µM (inactive)	0.04 µM	> 30 µM (inactive)
Cn1cc(-c2[nH]c3cc(NC(=O)[C@H](N)C4CCCCC4)cc4c3c2C=NNC4=O)cn1	> 30 µM (inactive)	> 30 µM (inactive)	> 30 µM (inactive)	> 30 µM (inactive)	> 30 µM (inactive)	2.19 µM (active)	0.146 µM (active)	0.002 µM (active)	> 30 µM (inactive)	4.86 µM (active)	> 30 µM (inactive)	> 30 µM (inactive)
S=C(NCc1ccc2c(c1)OCO2)N1CCN(c2ncnc3c2oc2ccccc23)CC1 [AMUVATINIB]	> 30 µM (inactive)	> 30 µM (inactive)	> 30 µM (inactive)	> 30 µM (inactive)	> 30 µM (inactive)	> 30 µM (inactive)	–	> 30 µM (inactive)	> 30 µM (inactive)	> 30 µM (inactive)	> 30 µM (inactive)	> 30 µM (inactive)
CC1(COc2ccc3c(c2)ncn3-c2ccc3cccc(N4CCC(N)CC4)c3n2)COC1 [CRENOLANIB]	1.31 µM (active)	> 30 µM (inactive)	0.702 µM (active)	> 30 µM (inactive)	> 30 µM (inactive)	–	> 30 µM (inactive)	> 30 µM (inactive)	> 30 µM (inactive)	> 30 µM (inactive)	4.97 µM (active)	0.282 µM (active)
CNC(=O)c1ccc(Nc2ncc(C(F)(F)F)c(NCc3nccnc3N(C)S(C)(=O)=O)n2)cc1 [DEFACTINIB]	> 30 µM (inactive)	> 30 µM (inactive)	2.45 µM (active)	> 30 µM (inactive)	–	> 30 µM (inactive)	> 30 µM (inactive)	> 30 µM (inactive)	> 30 µM (inactive)	–	9.12 µM (active)	> 30 µM (inactive)
CCc1nc(C(N)=O)c(Nc2ccc(N3CCC(N4CCN(C)CC4)CC3)c(OC)c2)nc1NC1CCOCC1 [GILTERITINIB]	0.482 µM (active)	0.536 µM (active)	> 30 µM (inactive)	> 30 µM (inactive)	–	2.04 µM (active)	> 30 µM (inactive)	0.025 µM (active)	0.736 µM (active)	> 30 µM (inactive)	> 30 µM (inactive)	0.202 µM (active)
O=S(=O)(c1cccc2c(O)nccc12)N1CCCNCC1 [HYDROXYFASUDIL]	> 30 µM (inactive)	> 30 µM (inactive)	> 30 µM (inactive)	> 30 µM (inactive)	> 30 µM (inactive)	> 30 µM (inactive)	> 30 µM (inactive)	> 30 µM (inactive)	> 30 µM (inactive)	–	> 30 µM (inactive)	> 30 µM (inactive)
C=CC(=O)Nc1cc(Nc2nccc(-c3cn(C)c4ccccc34)n2)c(OC)cc1N(C)CCN(C)C [OSIMERTINIB]	> 30 µM (inactive)	> 30 µM (inactive)	> 30 µM (inactive)	> 30 µM (inactive)	> 30 µM (inactive)	> 30 µM (inactive)	–	> 30 µM (inactive)	> 30 µM (inactive)	> 30 µM (inactive)	> 30 µM (inactive)	> 30 µM (inactive)
COc1cc(F)c(F)c(Nc2ccc(I)cc2F)c1NS(=O)(=O)C1(C[C@H](O)CO)CC1 [REFAMETINIB]	> 30 µM (inactive)	> 30 µM (inactive)	> 30 µM (inactive)	> 30 µM (inactive)	–	> 30 µM (inactive)	> 30 µM (inactive)	> 30 µM (inactive)	> 30 µM (inactive)	> 30 µM (inactive)	> 30 µM (inactive)	> 30 µM (inactive)
C=CCN(/C=C1/C(=O)O[C@H](COC)[C@@]2(C)C1=C(O)C(=O)C1=C2[C@H](OC(C)=O)C[C@]2(C)C(=O)CC[C@@H]12)CC=C [SONOLISIB]	> 30 µM (inactive)	> 30 µM (inactive)	> 30 µM (inactive)	> 30 µM (inactive)	–	> 30 µM (inactive)	> 30 µM (inactive)	> 30 µM (inactive)	> 30 µM (inactive)	> 30 µM (inactive)	> 30 µM (inactive)	> 30 µM (inactive)
CC(C)(O)CC(=O)NCCn1ccc2ncnc(Nc3ccc(Oc4cccc(C(F)(F)F)c4)c(Cl)c3)c21 [TAK-285]	–	> 30 µM (inactive)	> 30 µM (inactive)	> 30 µM (inactive)	> 30 µM (inactive)	–	> 30 µM (inactive)	> 30 µM (inactive)	> 30 µM (inactive)	> 30 µM (inactive)	> 30 µM (inactive)	> 30 µM (inactive)
Cc1cc(C(=O)Nc2cc(Oc3ccc4nc(NC(=O)C5CC5)cn4n3)ccc2C)n(C)n1 [TAK-593]	> 30 µM (inactive)	> 30 µM (inactive)	> 30 µM (inactive)	> 30 µM (inactive)	–	> 30 µM (inactive)	> 30 µM (inactive)	2.44 µM (active)	> 30 µM (inactive)	> 30 µM (inactive)	> 30 µM (inactive)	> 30 µM (inactive)
O[C@H]1CC[C@H](Nc2ncc3nc(Nc4c(F)cc(F)cc4F)n([C@H]4CCOC4)c3n2)CC1 [TANZISERTIB]	> 30 µM (inactive)	> 30 µM (inactive)	> 30 µM (inactive)	> 30 µM (inactive)	> 30 µM (inactive)	> 30 µM (inactive)	> 30 µM (inactive)	> 30 µM (inactive)	–	> 30 µM (inactive)	> 30 µM (inactive)	> 30 µM (inactive)

From ChEMBL document CHEMBL3991601, “The target landscape of clinical kinase drugs” (Science, 2017)
